From article PMC10518255, “A first-in-class pan-lysyl oxidase inhibitor impairs stromal remodeling and enhances gemcitabine response and survival in pancreatic cancer” (Nature Cancer, 2023)

System: Ki67
Test: Immunohistochemistry of end-point KPC tumors: proliferating cells
Assay type: in vivo, mouse
Conditions: KPC tumors at end point
Method: All tissues or matrices, including patient TMAs, were fixed in 10% buffered formalin and embedded in paraffin. The 4-μm sections of samples were deparaffinized with xylene and rehydrated in graded ethanol washes. For immunohistochemistry, Bond Dewax Solution (AR9222) was used. Antigen retrieval was performed using Bond RX H2(30) protocol: HIER 30 min ER1 (citrate pH 6) OR ER2 (EDTA pH 9) at 100 °C. Slides were quenched in BOND Polymer Refine Detection (Leica Biosystems DS9800). […] Slides were digitized on an Aperio slide scanner and representative areas per tumor acquired and analyzed by researchers blinded to the conditions of the experiment.
Extended Data Fig. 6 PXS-5505 in combination with gemcitabine in a KPC model. a. Quantification of proliferating cells (Ki67 positive nuclear staining) in KPC tumors at end point, treated as indicated. 5 fields of view (500 μm × 500 μm) per mouse and 10 mice per cohort were scored. […] Quantification of percent coverage of αSMA positive staining in KPC tumors at end point, treated as indicated. 3 fields of view (1000 μm × 1000 μm) per mouse and 10 mice per cohort were scored. […] Quantification of percent coverage of PDGFR-ß positive staining in KPC tumors at end point, treated as indicated. 3 fields of view (1000 μm × 1000 μm) per mouse and 10 mice per cohort were scored. […] 3 fields of view (500 μm × 500 μm) per mouse and 10 mice per cohort were scored. […]

Nc1ccn([C@@H]2O[C@H](CO)[C@@H](O)C2(F)F)c(=O)n1 [Gem, gemcitabine]
Ki67 positive tumor cells: significantly decreasing the number of Ki67 positive tumor cells
